Measured values from article PMC5519986 (2017).

How the values were obtained:
[1] = system: c-MYC G-quadruplex DNA (DNA, G4) GGGGAGGGTGGGGAGGGTGGGG; experiment: fluorescence titration (ligand fluorescence, Hill fit); details: K+ (100 mM Tris-KCl), pH 7.4, 25 °C, 1 μM ligand titrated with DNA
[2] = system: dsDNA, dual labelled (FRET) (DNA, duplex) CAAAAATTTTTGCAAAAATTTTTG; experiment: FRET melting; details: K+ (60 mM potassium cacodylate), pH 7.4, 100 nM DNA, 1 μM compound
[3] = system: dsDNA (control duplex DNA) (DNA, duplex) CAAAAATTTTTGCAAAAATTTTTG; experiment: fluorescence titration (ligand fluorescence, Hill fit); details: K+ (100 mM Tris-KCl), pH 7.4, 25 °C, 1 μM ligand titrated with DNA
[4] = system: c-MYC G-quadruplex DNA, dual labelled (FRET) (DNA, G4) GGGGAGGGTGGGGAGGGTGGGG; experiment: FRET melting; details: K+ (60 mM potassium cacodylate), pH 7.4, 100 nM DNA, 1 μM compound

SMILES | KD [1] [nM] | ΔTm [2] [°C] | KD [3] [nM] | ΔTm [4] [°C]
CN(C)CCCNC(=O)c1ccc(-n2cc(-c3ccc4c(c3)c3ccccc3n4-c3ccc(C(=O)NCCCN(C)C)cc3)nn2)cc1 | 170 ± 10 | 0.86±0.04 | > 30000 | 19.3±0.96
CN(C)CCCNC(=O)c1ccc(-n2c3ccccc3c3cc(-c4cn(-c5ccc(N)cc5)nn4)ccc32)cc1 | 510 ± 50 | 1.61±0.12 | > 25000 | 11.14±0.28
CN(C)CCCNC(=O)c1ccc(-n2c3ccccc3c3cc(-c4cn(CCCN(C)C)nn4)ccc32)cc1 | 1130 ± 30 | 8.41±0.21 | 880 ± 20 | 8.17±0.41
